Peptide text beside a SMILES is read from it. * marks the point of attachment. Cbz = O=C(OCc1ccccc1)*
Experiments:
[1] = system: GSK3β, active β-catenin and Snail; experiment: Western blotting of GSK3β, active β-catenin, Snail and EMT proteins in HCT116 cells; type: cell-based, human
Method: FIGS. 4A to 4L. EpEX induces EMT and invasion by stabilizing β-catenin and Snail through decreasing GSK3β activity. (FIG. 4A) The protein expression of EMT markers and regulators was detected by Western blotting in Wild-type (WT) or EpCAM knockout (KO) HCT116 cells after EpEX treatment. (FIG. 4B) Cell invasion was examined by Transwell chamber assay with matrigel. (FIG. 4C) WT or KO HCT116 and HT29 cells were starved for 16 h, then treated with 0.5 nM of HGF with 2% FBS for 24 h. EMT-related protein expression (E-cadherin, vimentin, and Snail) was examined by Western blotting. (FIG. 4D) WT or KO HCT116 and HT29 cells were treated with HGF (0.5 nM) for 24 h. Invasion by HCT116 and HT29 cells was examined by Transwell chamber assay with matrigel. (FIG. 4E) HCT116 and HT29 cells were starved for 16 h, then treated with 0.5 nM of HGF with 2% FBS for 24 h. EMT-related protein expression (E-cadherin, Vimentin, and Snail) was examined by Western blotting. (FIG. 4F) HCT116 and HT29 cells were starved for 16 h, then treated with 0.5 nM of HGF with 2% FBS for 24 h. Cell invasion was assessed by a Transwell assay with matrigel. (FIG. 4G) HCT116 cells after shLuc and shHGFR treatment were treated with 50 nM of EpEX-His. HCT116 cells after shLuc and shHGFR treatment were treated with 50 nM of EpEX-His with 2% FBS for 24 h. EMT-related protein expression (E-cadherin, Vimentin, and Snail) was examined by Western blotting. (FIG. 4H) Cell invasion was examined by Transwell chamber assay with matrigel. (FIG. 4I) Starved HCT116 cells were treated SU (10 μM) for 1 h, followed by treatment with EpEX-His (50 nM) for 24 h. Phosphorylated GSK3β, active-β-catenin, and Snail were detected by Western blotting. (FIG. 4J) HCT116 cells were starved for 16 h, then treated with 50 nM EpEX-His for 24 min. AKT inhibitor LY294002 (25 μM), ERK inhibitor U0126 (20 μM), or PF-562271 (10 μM) were applied 1 h before EpEX treatment. Protein expression of phosphorylated GSK3β and Snail was examined by Western blotting. (FIG. 4K) HCT116 cells were starved for 16 h, then treated with 50 nM EpEX, and SU (10 μM), LY (25 μM), UO (20 μM) or PF (10 μM). Cell invasion was examined by Transwell chamber assay with matrigel. (FIG. 4L) Protein expression was analyzed by Western blotting in EpEX-His (50 nM) treated HCT116 cells after treatment with or without 2 μM GSK3β inhibitor (BIO) for 24 h. Quantification of the normalized protein expression in the right panel.
FIGS. 5A to 5I. EpEX promotes Snail protein stability through inhibition of ubiquitination-mediated proteasomal degradation. (FIG. 5A) The gene expression of EMT markers and regulators was detected by qRT-PCR in Wild-type (WT) or EpCAM knockout (KO) of HCT116 and HT29 cells. (FIG. 5B) Stability of Snail protein in WT or KO of HCT116 cells. Cells were treated with cyclohexamide (CHX) 100 μg/ml at the indicated intervals and subjected to Western blotting. (FIG. 5C) The protein expression of Snail was analyzed in WT or KO HCT116 cells by treating with or without […] MG132 (proteasome inhibitor) for 6 h, followed by Western blotting. (FIG. 5D) WT or KO HCT116 cells were treated with 10 μM MG132 for 6 h before cell collection. The lysates were subjected to immunoprecipitation using anti-Snail antibody and input. Western blotting was performed with the indicated antibodies to detect ubiquitinated Snail protein. (FIG. 5E) Stability of Snail protein in HCT116 cells after EpEX (50 nM) treatment for 24 h. Cells were treated with cyclohexamide (CHX; 100 μg/ml) for the indicated intervals and then subjected to Western blotting. (FIG. 5F) Expression of the gene encoding SNAIL was detected by qRT-PCR in HCT116 cells after EpEX (50 nM) treatment for 24 h. (FIG. 5G) The protein expression of Snail in HCT116 was analyzed cells by Western blotting after EpEX (50 nM) treatment for 24 h, and treatment with or without 10 μM MG132 (proteasome inhibitor) for 6 h. […]

[2] = system: GSK3β, active β-catenin and Snail; experiment: as above; type: cell-based, human; remark: listed apart in the source

Compound | Snail steady-state protein levels ([1]; HCT116 with or without EpEX (50 nM, 24 h), 10 μM MG132 6 h, FIG. 5G) | Snail steady-state protein levels ([1]; WT or EpCAM KO HCT116, for 6 h, FIG. 5C) | Active β-catenin and Snail steady-state protein levels ([2]; 10 μM MG132 and EpAb2-6 for 6 h, FIG. 6I) | active β-catenin and Snail protein expressions ([1]; HCT116, control and EpEX-His (50 nM) treated, 2 μM BIO 24 h, FIG. 4L) | active β-catenin and Snail proteins ([2]; EpAb2-6 and 2 μM BIO 24 h, FIG. 6H)
CC(C)C[C@@H](C=O)NC(=O)[C@H](CC(C)C)NC(=O)[C@H](CC(C)C)NC(=O)OCc1ccccc1 [MG132] (Cbz-Leu-Leu-Leu-aldehyde) | increased Snail steady-state protein levels | increased Snail steady-state protein levels | increased active β-catenin and Snail steady-state protein levels | – | –
O=C1Nc2cc(Br)ccc2/C1=C1/Nc2ccccc2/C1=N\O [BIO] | – | – | – | upregulated both in control and EpEX-treated cells | increased

— patent publication US20250269018A1, “COMBINED CANCER THERAPY WITH AN EPITHELIAL CELL ADHESION MOLECULE (EPCAM) INHIBITOR AND A HEPATOCYTE GROWTH FACTOR RECEPTOR (HGFR) INHIBITOR” (ACADEMIA SINICA, priority 2021, published 2025)
